Results reported in patent US20050014811A1, “Substituted benzimidazole compounds and their use for the treatment of cancer” (Aventis Pharma S.A., priority 2001, published 2005).

What was measured:
CDK4/CyclinD1 = CDK4/CyclinD1 (Homo sapiens, UniProt P11802); assay: CDK4/CyclinD1 Flashplate assay, 96-well format, biotinylated-Rb peptide substrate; type: biochemical
How it was run: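 Biotinylated Rb peptide bound to streptavidin Flashplate; CDK4/CyclinD1 (70 ng/well) preincubated 30 min on ice with compound at 10, 3, 1, 0.3 and 0.1 μM final. Reaction with 1 μM cold ATP plus 33P-ATP for 45 min at RT; incorporated 33P counted, duplicates.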

CDK2/CyclinE = CDK2/CyclinE (Homo sapiens, UniProt P24941); assay: CDK2/CyclinE Flashplate assay, 96-well format, biotinylated-Rb peptide substrate; type: biochemical
Description: This is a CDK2/CyclinE kinase assay in a 96-well Streptavidin-coated Flashplate with a biotinylated-Rb peptide substrate.
Each point is tested in duplicate
Biotinylated-Rb: Biotin-[…]-OH
• 1. Prepare substrate: 1 mg/ml solution made fresh in PBS. • 2. Add 4 μg per well to the Flashplate. • 3. Incubate for 2 hours at RT. • 4. From 10 mM inhibitor stocks in DMSO, make 1 mM, 300 μM, 100 μM, 30 μM and 10 μM series of dilution in DMSO. • 5. Was the Flashplate 3 times with 300 μl PBS to remove unbound peptide substrate. • 6. Add the CDK2/CyclinE kinase: 200 ng per well, in a volume of 90 μl in kinase buffer (except for “no enzyme” control wells). • 7. Add 1 μl per well of inhibitor to test 10 μM, 3 μM, 1 μM, 0.3 μM and 0.1 μM in final concentration per 100 μl in each well. • 8. Shake gently the Flashplate 1 minute. • 9. Incubate 30 minutes on wet ice. • 10. Initiate the reaction with 10 μl kinase buffer containing 1 μM final cold ATP and 1 μCi final ^33P-ATP per well. • 11. Shake gently the Flashplate 1 minute. • 12. Incubate 45 minutes at RT (no shaking). • 13. Wash the Flashplate 3 times with 300 μl PBS
14. Count to detect the incorporation of ^33P-ATP by the kinase to the Rb phosphorylation site.

Sequence of CDK4/CyclinD1 (P11802 whole entry, species assumed): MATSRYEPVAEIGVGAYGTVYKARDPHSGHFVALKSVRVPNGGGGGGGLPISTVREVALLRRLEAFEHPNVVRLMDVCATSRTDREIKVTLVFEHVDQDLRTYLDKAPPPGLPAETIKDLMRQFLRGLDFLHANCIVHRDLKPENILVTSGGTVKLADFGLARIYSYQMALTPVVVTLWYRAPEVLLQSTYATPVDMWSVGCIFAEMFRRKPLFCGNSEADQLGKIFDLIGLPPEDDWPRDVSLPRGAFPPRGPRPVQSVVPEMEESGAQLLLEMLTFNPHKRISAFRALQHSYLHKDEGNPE
Sequence of CDK4/CyclinD1 (P24385 whole entry partner, species assumed): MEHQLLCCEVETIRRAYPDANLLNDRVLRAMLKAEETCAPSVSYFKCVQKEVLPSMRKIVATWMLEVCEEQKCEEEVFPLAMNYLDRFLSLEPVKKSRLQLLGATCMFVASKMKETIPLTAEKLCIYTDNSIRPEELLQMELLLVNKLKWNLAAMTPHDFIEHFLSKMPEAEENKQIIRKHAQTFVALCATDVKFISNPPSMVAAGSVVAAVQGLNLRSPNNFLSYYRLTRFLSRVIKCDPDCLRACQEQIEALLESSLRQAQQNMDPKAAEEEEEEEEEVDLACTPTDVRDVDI

SMILES | IC50 (CDK4/CyclinD1) | IC50 (CDK2/CyclinE) | inhibition at 10 µM (CDK4/CyclinD1)
O=C(Nc1ccc(Cl)cc1)Nc1nc2cc(OS(=O)(=O)c3ccc(NC4CCCC4)cc3)ccc2[nH]1 [Example 40, 4-Cyclopentylamino-benzenesulfonic acid 2-[3-(4-chloro-phenyl)-ureido]-1H-benzoimidazol-5-yl ester] | 3710 nM | 1090 nM | 
O=C(NCc1cccc(F)c1)Nc1nc2cc(OS(=O)(=O)c3ccc(NC4CCCC4)cc3)ccc2[nH]1 [Example 41, 4-Cyclopentylamino-benzenesulfonic acid 2-[3-(3-fluoro-benzyl)-ureido]-1H-benzoimidazol-5-yl ester] | 2800 nM | 60 nM | 
O=C(Nc1cccc(Cl)c1)Nc1nc2cc(OS(=O)(=O)c3ccc(NC4CCCC4)cc3)ccc2[nH]1 [Example 42, 4-Cyclopentylamino-benzenesulfonic acid 2-[3-(3-chloro-phenyl)-ureido]-1H-benzoimidazol-5-yl ester] |  | 910 nM | 84%
CC(C)CNC(=O)Nc1nc2cc(OS(=O)(=O)c3ccc(NC4CCCC4)cc3)ccc2[nH]1 [Example 43, 4-Cyclopentylamino-benzenesulfonic acid 2-(3-isobutyl-ureido)-1H-benzoimidazol-5-yl ester] | 1900 nM | 200 nM | 
CCNC(=O)Nc1nc2cc(OS(=O)(=O)c3ccc(NC4CCCC4)cc3)ccc2[nH]1 [Example 45, 4-Cyclopentylamino-benzenesulfonic acid 2-(3-ethyl-ureido)-1H-benzoimidazol-5-yl ester] | 600 nM | 60 nM | 
O=C(O)CNC(=O)Nc1nc2cc(OS(=O)(=O)c3ccc(NC4CCCC4)cc3)ccc2[nH]1 [Example 46, {3-[5-(4-Cyclopentylamino-benzenesulfonyloxy)-1H-benzoimidazol-2-yl]-ureido}-acetic acid] | 12 nM | 60 nM | 
O=C(NCCS(=O)(=O)O)Nc1nc2cc(OS(=O)(=O)c3ccc(-n4ccnc4)cc3)ccc2[nH]1 [Example 47, 4-Imidazol-1-yl-benzenesulfonic acid 2-[3-(2-sulfo-ethyl)-ureido]-1H-benzoimidazol-5-yl ester] | 800 nM | 160 nM | 
COCCNC(=O)Nc1nc2cc(OS(=O)(=O)c3ccc(NC4CCCC4)cc3)ccc2[nH]1 [Example 48, 4-Cyclopentylamino-benzenesulfonic acid 2-[3-(2-methoxy-ethyl)-ureido]-1H-benzoimidazol-5-yl ester] | 300 nM | 40 nM | 
CN(C)c1ccc(NC(=O)Nc2nc3cc(OS(=O)(=O)c4ccc(NC5CCCC5)cc4)ccc3[nH]2)cc1 [Example 49, 4-Cyclopentylamino-benzenesulfonic acid 2-[3-(4-dimethylamino-phenyl)-ureido]-1H-benzoimidazol-5-yl ester] |  | 400 nM | 88%
O=C(NCc1ccccn1)Nc1nc2cc(OS(=O)(=O)c3ccc(NC4CCCC4)cc3)ccc2[nH]1 [Example 50, 4-Cyclopentylamino-benzenesulfonic acid 2-(3-pyridin-2-ylmethyl-ureido)-1H-benzoimidazol-5-yl ester] | 300 nM | 40 nM | 
O=C(Nc1nc2cc(OS(=O)(=O)c3ccc(NC4CCCC4)cc3)ccc2[nH]1)NC1CCC1 [Example 51, 4-Cyclopentylamino-benzenesulfonic acid 2-(3-cyclobutyl-ureido)-1H-benzoimidazol-5-yl ester] | 800 nM | 140 nM | 
O=C(NCc1ccncc1)Nc1nc2cc(OS(=O)(=O)c3ccc(NC4CCCC4)cc3)ccc2[nH]1 [Example 52, 4-Cyclopentylamino-benzenesulfonic acid 2-(3-pyridin-4-ylmethyl-ureido)-1H-benzoimidazol-5-yl ester] | 1000 nM | 80 nM | 
CC(C)(C)NC(=O)Nc1nc2cc(OS(=O)(=O)c3ccc(NC4CCCC4)cc3)ccc2[nH]1 [Example 53, 4-Cyclopentylamino-benzenesulfonic acid 2-(3-tert-butyl-ureido)-1H-benzoimidazol-5-yl ester] |  | 800 nM | 83%
CNC(=O)Nc1nc2cc(OS(=O)(=O)c3ccc(NCC4CCCO4)cc3)ccc2[nH]1 (centres unmarked) [Example 54, 4-[(Tetrahydro-furan-2-ylmethyl)-amino]-benzenesulfonic acid 2-(3-methyl-ureido)-1H-benzoimidazol-5-yl ester] | 500 nM | 5 nM | 
O=C(Nc1ccccc1)Nc1nc2cc(OS(=O)(=O)c3ccc(-n4ccnc4)cc3)ccc2[nH]1 [Example 57-a, 4-Imidazol-1-yl-benzenesulfonic acid 2-(3-phenyl-ureido)-1H-benzoimidazol-5-yl ester] | 1000 nM | 240 nM | 
O=C(Nc1nc2cc(OS(=O)(=O)c3ccc(-n4ccnc4)cc3)ccc2[nH]1)NC1CCCCC1 [Example 57-b, 4-Imidazol-1-yl-benzenesulfonic acid 2-(3-cyclohexyl-ureido)-1H-benzoimidazol-5-yl ester] |  | 1900 nM | 51%
O=C(Nc1nc2cc(OS(=O)(=O)c3ccc(-n4ccnc4)cc3)ccc2[nH]1)NC1CCCC1 [Example 57-c, 4-Imidazol-1-yl-benzenesulfonic acid 2-(3-cyclopentyl-ureido)-1H-benzoimidazol-5-yl ester] |  | 600 nM | 60%
O=C(Nc1cccc(F)c1)Nc1nc2cc(OS(=O)(=O)c3ccc(-n4ccnc4)cc3)ccc2[nH]1 [Example 57-d, 4-Imidazol-1-yl-benzenesulfonic acid 2-[3-(3-fluoro-phenyl)-ureido]-1H-benzoimidazol-5-yl ester] |  | 500 nM | 70%
O=C(NCCO)Nc1nc2cc(OS(=O)(=O)c3ccc(-n4ccnc4)cc3)ccc2[nH]1 [Example 57-e, 4-Imidazol-1-yl-benzenesulfonic acid 2-[3-(2-hydroxy-ethyl)-ureido]-1H-benzoimidazol-5-yl ester] |  | 300 nM | 90%
O=C(Nc1ccc(F)cc1)Nc1nc2cc(OS(=O)(=O)c3ccc(-n4ccnc4)cc3)ccc2[nH]1 [Example 57-f, 4-Imidazol-1-yl-benzenesulfonic acid 2-[3-(4-fluoro-phenyl)-ureido]-1H-benzoimidazol-5-yl ester] |  | 500 nM | 88%
O=C(NCc1ccccc1Cl)Nc1nc2cc(OS(=O)(=O)c3ccc(-n4ccnc4)cc3)ccc2[nH]1 [Example 57-g, 4-Imidazol-1-yl-benzenesulfonic acid 2-[3-(2-chloro-benzyl)-ureido]-1H-benzoimidazol-5-yl ester] |  | 600 nM | 52%
O=C(NCc1ccccc1F)Nc1nc2cc(OS(=O)(=O)c3ccc(-n4ccnc4)cc3)ccc2[nH]1 [Example 57-h, 4-Imidazol-1-yl-benzenesulfonic acid 2-[3-(2-fluoro-benzyl)-ureido]-1H-benzoimidazol-5-yl ester] | 4400 nM | 100 nM | 
O=C(Nc1nc2cc(OS(=O)(=O)c3ccc(-n4ccnc4)cc3)ccc2[nH]1)N1CCC1 [Example 57-i, 4-Imidazol-1-yl-benzenesulfonic acid 2-[(azetidine-1-carbonyl)-amino]-1H-benzoimidazol-5-yl ester] |  | 5200 nM | 27%
CN1CCN(CCCNC(=O)Nc2nc3cc(OS(=O)(=O)c4ccc(-n5ccnc5)cc4)ccc3[nH]2)CC1 [Example 57-k, 4-Imidazol-1-yl-benzenesulfonic acid 2-{3-[3-(4-methyl-piperazin-1-yl)-propyl]-ureido}-1H-benzoimidazol-5-yl ester] |  | 600 nM | 49%
O=C(NCc1ccccc1)Nc1nc2cc(OS(=O)(=O)c3ccc(-n4ccnc4)cc3)ccc2[nH]1 [Example 57-l, 4-Imidazol-1-yl-benzenesulfonic acid 2-(3-benzyl-ureido)-1H-benzoimidazol-5-yl ester] | 1000 nM | 70 nM | 
O=C(Nc1ccccc1)Nc1nc2cc(OS(=O)(=O)c3ccc(NC4CCCC4)cc3)ccc2[nH]1 [Example 58-a, 4-Cyclopentylamino-benzenesulfonic acid 2-(3-phenyl-ureido)-1H-benzoimidazol-5-yl ester] |  | 380 nM | 96%
O=C(NCCNCCO)Nc1nc2cc(OS(=O)(=O)c3ccc(NC4CCCC4)cc3)ccc2[nH]1 [Example 58-aa, 4-Cyclopentylamino-benzenesulfonic acid 2-{3-[2-(2-hydroxy-ethylamino)-ethyl]-ureido}-1H-benzoimidazol-5-yl ester] | 340 nM | 100 nM | 
O=C(NCCCCO)Nc1nc2cc(OS(=O)(=O)c3ccc(NC4CCCC4)cc3)ccc2[nH]1 [Example 58-ab, 4-Cyclopentylamino-benzenesulfonic acid 2-[3-(4-hydroxy-butyl)-ureido]-1H-benzoimidazol-5-yl ester] | 220 nM | 2 nM | 
